The results in this text go back to the supplement of paper PMC4862054.

Common to all, as to experiment: normalised response (% of control), CellTiter-Glo; higher = more viable cells (100 = DMSO, 0 = benzethonium chloride kill control)
Details in all cases: incubation time: 72 h
For orientation: Cellular ATP, detected with luciferase, serves as a proxy for viable cell number.

Assay [1] relates to CAL-85-1. The method, boiled down: (§1)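 Two readouts were taken after 72 h: CellTox Green fluorescence (485/520 nm) first, then CellTiter-Glo luminescence after 10 min at room temperature. Breast cancer cell lines had been seeded as 20 µl suspension into 384-well plates holding compound at 5 concentrations in 10-fold steps across a compound-specific 10,000-fold range. Each value is a normalised signal at a single concentration, with plates scaled to 0.1 % DMSO (100) and a positive kill control (0).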

Assay [2] relates to BT-549. The method, boiled down: as §1
Another assay deals with MDA-MB-468. The method, boiled down: as §1
Assay [3] concerns BT-474. The method, boiled down: as §1
The test system of assay [4] is MCF-10A. The method, boiled down: as §1
A further assay deals with MDA-MB-436. The method, boiled down: as §1
The subject of another assay is HCC1937. The method, boiled down: as §1
In a further assay the test system is CAL-120. The method, boiled down:
as §1

Assay [5] deals with CAL-85-1. The method, boiled down: as §1
This is another data set of the same source.

In another assay the test system is HDQ-P1. The method, boiled down: as §1
The test system of assay [6] is BT-549. The method, boiled down: as §1
The source holds these as a separate data set.

The subject of assay [7] is BT-474. The method, boiled down: as §1
The source holds these as a separate data set.

Assay [8] deals with MCF-10A. The method, boiled down: as §1
This is another data set of the same source.

For a further assay, the system named is HCC1143. The method, boiled down:
as §1

A further assay concerns CAL-148. The method, boiled down: as §1
A further assay deals with CAL-51. The method, boiled down: as §1
The subject of a further assay is MDA-MB-453. The method, boiled down:
as §1

The next assay deals with HCC1599. The method, boiled down: as §1
A further assay relates to MDA-MB-231. The method, boiled down: as §1
The subject of another assay is Hs578T. The method, boiled down: as §1

Regarding `COc1cc(Nc2c(C#N)cnc3cc(OCCCN4CCN(C)CC4)c(OC)cc23)c(Cl)cc1Cl` [Bosutinib] (10000 nM), the normalised response in the assay on CAL-85-1 [1] amounted to 0.33%; in the assay with BT-549 [2], 15.6%; in the assay on MDA-MB-468, 1.43%; with BT-474 [3] it was 2.86%; with MCF-10A [4], 1.72%; in the assay with MDA-MB-436 it was 5.63%.
For `C/C(=C\c1csc(C)n1)[C@@H]1C[C@@H]2O[C@]2(C)CCC[C@H](C)[C@H](O)[C@@H](C)C(=O)C(C)(C)[C@@H](O)CC(=O)N1` [Ixabepilone] (100 nM), the normalised response worked out at 102% in the assay on HCC1937; 95.8% in the assay with CAL-120; 99.5% in the assay with CAL-85-1 [5]; 100% in the assay with HDQ-P1; 23.6% with BT-549 [6]; 103% with BT-474 [7]. The normalised response in the assay on MCF-10A [8] is 110%; with HCC1143, 97.5%; in the assay with CAL-148 it was 97.8%; in the assay with CAL-51, 30.6%; in the assay on MDA-MB-453, 109%; in the assay on HCC1599, 103%. In addition, the normalised response in the assay on MDA-MB-231 is 96.9%; in the assay with Hs578T it was 104%.
As to `Cn1cc(C2=C(c3cn(C4CCN(Cc5ccccn5)CC4)c4ccccc34)C(=O)NC2=O)c2ccccc21` [Enzastaurin] (10000 nM), the normalised response in the assay with CAL-85-1 [1] was 85.1%; with BT-549 [2] it was 61.2%; in the assay with MDA-MB-468, 82.9%; in the assay with BT-474 [3] it was 96%; in the assay on MCF-10A [4], 87.5%; with MDA-MB-436 it was 101%.
As for `CC1(C)CCC(c2ccc(Cl)cc2)=C(CN2CCN(c3ccc(C(=O)NS(=O)(=O)c4ccc(N[C@H](CCN5CCOCC5)CSc5ccccc5)c(S(=O)(=O)C(F)(F)F)c4)cc3)CC2)C1` [Navitoclax] (10000 nM), the normalised response stood at 86.2% with CAL-85-1 [1]; 86.7% in the assay on BT-549 [2]; 78% with MDA-MB-468; 23.5% with BT-474 [3]; 92.5% with MCF-10A [4]; 90.7% in the assay on MDA-MB-436.
Take `Cn1cc(C2=C(c3cn(C4CCN(Cc5ccccn5)CC4)c4ccccc34)C(=O)NC2=O)c2ccccc21` [Enzastaurin] (1000 nM): the normalised response in the assay with HCC1937 stood at 98.4%; in the assay on CAL-120 it was 103%; with CAL-85-1 [5], 109%; with HDQ-P1, 91.2%; with BT-549 [6], 95.8%; with BT-474 [7], 93.1%. For the same compound, the normalised response stood at 91.6% with MCF-10A [8]; 92.4% in the assay with HCC1143; 104% in the assay with CAL-148; 74.7% in the assay on CAL-51; 96.1% with MDA-MB-453; 95.8% in the assay on HCC1599. In addition, the normalised response in the assay on MDA-MB-231 came out at 100%; in the assay with Hs578T, 104%.
Consider `CNC(=O)c1ccccc1Sc1ccc2c(/C=C/c3ccccn3)n[nH]c2c1` [Axitinib] (10000 nM), for which the normalised response is 120% in the assay on CAL-85-1 [1]; 49.7% in the assay on BT-549 [2]; 24.5% in the assay with MDA-MB-468; 80.4% with BT-474 [3]; 78.6% in the assay on MCF-10A [4]; 64.1% with MDA-MB-436.
For the compound `CC(C)(C)NC(=O)[C@H]1CC[C@H]2[C@@H]3CC[C@H]4NC(=O)C=C[C@]4(C)[C@H]3CC[C@]12C` [Finasteride] (1000 nM), the normalised response with HCC1937 worked out at 99.6%; with CAL-120, 106%; in the assay with CAL-85-1 [5], 95%; in the assay with HDQ-P1, 105%; in the assay on BT-549 [6], 90.7%; with BT-474 [7] it was 98.9%. The normalised response came out at 104% in the assay with MCF-10A [8]; 96.6% in the assay with HCC1143; 91.8% with CAL-148; 94.6% with CAL-51; 103% with MDA-MB-453; 113% in the assay with HCC1599. The normalised response was 95.2% in the assay on MDA-MB-231 and 96.6% in the assay on Hs578T.
For the compound `C=CCn1c(=O)c2cnc(Nc3ccc(N4CCN(C)CC4)cc3)nc2n1-c1cccc(C(C)(C)O)n1` [MK1775] (1000 nM), the normalised response was 39.6% with HCC1937; 47.3% with CAL-120; 18.7% in the assay on CAL-85-1 [5]; 35.9% in the assay on HDQ-P1; 21.2% with BT-549 [6]; 33.3% with BT-474 [7]. In addition, the normalised response was determined as 47.6% in the assay on MCF-10A [8]; 43.2% in the assay on HCC1143; 12.2% in the assay with CAL-148; 18.5% in the assay on CAL-51; 50.1% in the assay with MDA-MB-453; 7.3% in the assay on HCC1599. For the same compound, the figures for the normalised response in the assay on MDA-MB-231 and in the assay with Hs578T were 23.6% and 30%, respectively.
As to `CC(O)(CS(=O)(=O)c1ccc(F)cc1)C(=O)Nc1ccc(C#N)c(C(F)(F)F)c1` (stereo not given) [Bicalutamide] (1000 nM), the normalised response is 100% with HCC1937; 108% in the assay on CAL-120; 107% in the assay with CAL-85-1 [5]; 108% in the assay on HDQ-P1; 97.6% in the assay with BT-549 [6]; 110% in the assay with BT-474 [7]. Besides, the normalised response with MCF-10A [8] is 110%; in the assay with HCC1143 it was 101%; with CAL-148, 102%; in the assay with CAL-51, 101%; with MDA-MB-453, 95%; in the assay on HCC1599 it was 120%. Further, the normalised response was 112% in the assay with MDA-MB-231 and 95.6% in the assay on Hs578T.
`Nc1ccn([C@@H]2O[C@H](CO)[C@@H](O)C2(F)F)c(=O)n1` [Gemcitabine] (100 nM): the normalised response was found to be 79.2% in the assay with HCC1937; 78.8% in the assay on CAL-120; 43.1% in the assay on CAL-85-1 [5]; 86% with HDQ-P1; 49.7% with BT-549 [6]; 81.8% with BT-474 [7]. The normalised response with MCF-10A [8] came to 66.7%; with HCC1143, 44.1%; in the assay on CAL-148 it was 56%; in the assay with CAL-51, 24.4%; in the assay with MDA-MB-453 it was 67.7%; in the assay on HCC1599 it was 39%. For the same compound, the normalised response was 85% in the assay on MDA-MB-231 and 70% in the assay on Hs578T.
In the case of `COc1ccc(S(=O)(=O)Nc2cccnc2Nc2ccc(O)cc2)cc1` [ABT-751] (1000 nM), the normalised response with HCC1937 amounted to 77.8%; with CAL-120 it was 60.9%; in the assay with CAL-85-1 [5] it was 34.7%; in the assay on HDQ-P1, 71.1%; in the assay on BT-549 [6], 48.9%; in the assay with BT-474 [7], 63.8%. In addition, the normalised response with MCF-10A [8] amounted to 84.4%; in the assay on HCC1143, 67.3%; with CAL-148 it was 87.2%; in the assay on CAL-51, 104%; in the assay with MDA-MB-453, 54.8%; in the assay on HCC1599, 43.5%. In addition, the normalised response was found to be 63.6% with MDA-MB-231 and 45.6% in the assay on Hs578T.
As to `COc1cc(Nc2c(C#N)cnc3cc(OCCCN4CCN(C)CC4)c(OC)cc23)c(Cl)cc1Cl` [Bosutinib] (1000 nM), the normalised response in the assay with HCC1937 was 78.8%; in the assay on CAL-120 it was 83.8%; in the assay on CAL-85-1 [5] it was 72.2%; in the assay on HDQ-P1 it was 51.2%; with BT-549 [6], 95.2%; with BT-474 [7] it was 90.7%. Moreover, the normalised response with MCF-10A [8] was determined as 34.5%; with HCC1143 it was 84.7%; in the assay with CAL-148 it was 101%; in the assay on CAL-51 it was 77.2%; in the assay with MDA-MB-453, 94.9%; in the assay with HCC1599, 86.8%. Further, the normalised response was 81.6% in the assay on MDA-MB-231 and 102% in the assay on Hs578T.
`CO[C@@H]1[C@H](N(C)C(=O)c2ccccc2)C[C@H]2O[C@]1(C)n1c3ccccc3c3c4c(c5c6ccccc6n2c5c31)C(=O)NC4` [Midostaurin] (1000 nM): the normalised response in the assay on HCC1937 turned out to be 63.7%; in the assay with CAL-120, 54%; in the assay with CAL-85-1 [5], 85.8%; in the assay on HDQ-P1, 65.1%; in the assay on BT-549 [6], 32.6%; with BT-474 [7], 52.1%. The normalised response in the assay with MCF-10A [8] worked out at 27.8%; in the assay with HCC1143, 55.9%; in the assay with CAL-148, 80.5%; in the assay on CAL-51, 20.8%; in the assay on MDA-MB-453, 120%; with HCC1599, 94.5%. In addition, the normalised response is 50.3% in the assay with MDA-MB-231 and 26.1% with Hs578T.
